How the values were obtained:
DYRK1A kinase = DYRK1A kinase (Homo sapiens, UniProt Q13627); test: DYRK1A kinase activity (Ser/Thr 18 peptide Z-lyte FRET assay); type: biochemical; details: recombinant DYRK1A, 30 μM ATP, one hour at room temperature;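 note: kinase activity read as coumarin/fluorescein emission ratio after development step, with unphosphorylated and phosphorylated peptide forms setting 0% and 100% controls, values from dose-response curves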
GSK3β kinase = GSK3β kinase (Homo sapiens, UniProt P49841); test: GSK3β kinase activity (Ser/Thr 09 peptide Z-lyte FRET assay); type: biochemical; details: recombinant kinase, 46 μM ATP, one hour at room temperature; read-out: EC50
Sequence of GSK3β kinase (P49841 whole entry): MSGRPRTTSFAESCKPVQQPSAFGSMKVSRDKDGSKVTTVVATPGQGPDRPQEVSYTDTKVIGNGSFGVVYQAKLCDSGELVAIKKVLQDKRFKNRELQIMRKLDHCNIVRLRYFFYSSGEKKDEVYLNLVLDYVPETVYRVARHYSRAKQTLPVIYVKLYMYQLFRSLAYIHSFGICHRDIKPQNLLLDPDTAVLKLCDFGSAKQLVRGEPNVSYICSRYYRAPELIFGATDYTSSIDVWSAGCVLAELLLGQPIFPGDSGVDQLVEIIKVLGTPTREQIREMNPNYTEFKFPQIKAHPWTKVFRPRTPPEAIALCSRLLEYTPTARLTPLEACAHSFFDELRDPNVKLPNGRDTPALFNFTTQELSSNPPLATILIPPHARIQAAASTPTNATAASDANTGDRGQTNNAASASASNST

[1] = system: SW480 colon carcinoma cells; test: Cell viability assay (CellTiter-Glo); details: Homo sapiens; for EC50: SW480, 96 h; for inhibition at 10 µM: SW480, read-out: percent inhibition at 10 μM
[2] = system: Wnt-responsive Sp5-Luc reporter in SW480 colon carcinoma cells; test: Screening assay for Wnt activity (Sp5-Luc reporter gene assay); details: Homo sapiens; for EC50: SW480; for inhibition at 10 µM: SW480, read-out: percent inhibition at 10 μM
IL-6 = IL-6 inhibition in LPS-stimulated human peripheral blood mononuclear cells (HTRF); details: Homo sapiens, PBMC; for EC50: 22 h; for inhibition at 10 µM: read-out: percentage in parentheses after EC50 >10
[3] = system: α-smooth muscle actin (aSMA) positive LL29 cells; test: Inhibition of the fibrotic process: αSMA staining in TGF-β1 treated LL29 fibroblasts from IPF patients; details: Homo sapiens, Fibroblast; for EC50: 96 h; for inhibition at 10 µM: read-out: percentage in parentheses after EC50 >10

Structure (SMILES): CN1CCC(Oc2ccc(C(=O)Nc3ncc4ccc(-c5cnn(C)c5)cc4n3)cc2)CC1 [Compound 1052, N-(7-(1-Methyl-1H-pyrazol-4-yl)quinazolin-2-yl)-4-((1-methylpiperidin-4-yl)oxy)benzamide]
- EC50 (DYRK1A kinase): 0.035 µM
- EC50 (GSK3β kinase): 9.43 µM
- EC50 [1]: 5.37 µM
- EC50 [2]: 3.15 µM
- EC50 (IL-6): > 10 µM
- inhibition at 10 µM (IL-6): 3.8%
- EC50 [3]: 8.74 µM

Structure (SMILES): CCN(CC)CC(=O)Nc1ncc2ccc(-c3cnn(C)c3CN3CCCCC3)cc2n1 [Compound 1189, 2-(Diethylamino)-N-(7-(1-methyl-5-(piperidin-1-ylmethyl)-1H-pyrazol-4-yl)quinazolin-2-yl)acetamide]
- EC50 (DYRK1A kinase): 0.186 µM
- EC50 (GSK3β kinase): 1.69 µM
- EC50 [1]: > 10 µM
- inhibition at 10 µM [1]: 17.4%
- EC50 [2]: > 10 µM
- inhibition at 10 µM [2]: 29.5%
- EC50 (IL-6): > 10 µM
- inhibition at 10 µM (IL-6): 7.9%
- EC50 [3]: > 10 µM
- inhibition at 10 µM [3]: 18%

Structure (SMILES): Cn1cc(-c2ccc3cnc(NC(=O)C(C)(C)F)nc3c2)nn1 [Compound 1239, 2-Fluoro-2-methyl-N-(7-(1-methyl-1H-1,2,3-triazol-4-yl)quinazolin-2-yl) propanamide]
- EC50 (DYRK1A kinase): 0.171 µM
- EC50 (GSK3β kinase): 0.112 µM
- EC50 [1]: > 10 µM
- inhibition at 10 µM [1]: 17.2%
- EC50 [2]: > 10 µM
- inhibition at 10 µM [2]: 47.4%
- EC50 (IL-6): > 10 µM
- inhibition at 10 µM (IL-6): 7.3%
- EC50 [3]: > 10 µM
- inhibition at 10 µM [3]: 13.5%

Structure (SMILES): Cn1cc(-c2ccc3cnc(NC(=O)C4CCN(CC5(C)COC5)CC4)nc3c2)nn1 [Compound 1254, N-(7-(1-Methyl-1H-1,2,3-triazol-4-yl)quinazolin-2-yl)-1-((3-methyloxetan-3-yl)methyl)piperidine-4-carboxamide]
- EC50 (DYRK1A kinase): 0.104 µM
- EC50 (GSK3β kinase): 0.069 µM
- EC50 [1]: > 10 µM
- inhibition at 10 µM [1]: 11.2%
- EC50 [2]: > 10 µM
- inhibition at 10 µM [2]: 31.7%
- EC50 (IL-6): > 10 µM
- inhibition at 10 µM (IL-6): 3.8%
- EC50 [3]: 6.97 µM

Structure (SMILES): Cn1cncc1-c1ccc2cnc(NC(=O)C3CCC(F)(F)CC3)nc2c1 [Compound 1306, 4,4-Difluoro-N-(7-(1-methyl-1H-imidazol-5-yl)quinazolin-2-yl)cyclohexane-1-carboxamide]
- EC50 (DYRK1A kinase): 0.391 µM
- EC50 (GSK3β kinase): 0.377 µM
- EC50 [1]: > 10 µM
- inhibition at 10 µM [1]: 43.7%
- EC50 [2]: > 10 µM
- inhibition at 10 µM [2]: 42.4%
- EC50 (IL-6): 8.81 µM
- EC50 [3]: 1.8 µM

Structure (SMILES): O=C(Nc1ncc2ccc(-c3cnco3)cc2n1)C1CCN(C(=O)CN2CCCC2)CC1 [Compound 1438, N-(7-(Oxazol-5-yl)quinazolin-2-yl)-1-(2-(pyrrolidin-1-yl)acetyl)piperidine-4-carboxamide]
- EC50 (DYRK1A kinase): 0.1 µM
- EC50 (GSK3β kinase): 5.18 µM
- EC50 [1]: > 10 µM
- inhibition at 10 µM [1]: 14.7%
- EC50 [2]: > 10 µM
- inhibition at 10 µM [2]: 10%
- EC50 (IL-6): > 10 µM
- inhibition at 10 µM (IL-6): 9.6%
- EC50 [3]: > 10 µM
- inhibition at 10 µM [3]: 29.6%

Structure (SMILES): Cc1ncc(-c2ccc3cnc(NC(=O)[C@H]4C[C@H](N5CCOCC5)C4)nc3c2)o1 [Compound 1462, trans-N-(7-(2-Methyloxazol-5-yl)quinazolin-2-yl)-3-morpholinocyclobutane-1-carboxamide]
- EC50 (DYRK1A kinase): 0.37 µM
- EC50 (GSK3β kinase): 0.707 µM
- EC50 [1]: > 10 µM
- inhibition at 10 µM [1]: 20.9%
- EC50 [2]: > 10 µM
- inhibition at 10 µM [2]: 13.6%
- EC50 (IL-6): > 10 µM
- inhibition at 10 µM (IL-6): 0%
- EC50 [3]: > 10 µM
- inhibition at 10 µM [3]: 14.5%

Structure (SMILES): Cc1ncc(-c2ccc3cnc(NC(=O)C4CCN(CC(C)(F)F)CC4)nc3c2)o1 [Compound 1471, 1-(2,2-Difluoropropyl)-N-(7-(2-methyloxazol-5-yl)quinazolin-2-yl)piperidine-4-carboxamide]
- EC50 (DYRK1A kinase): 0.046 µM
- EC50 (GSK3β kinase): 0.578 µM
- EC50 [1]: > 10 µM
- inhibition at 10 µM [1]: 11.3%
- EC50 [2]: > 10 µM
- inhibition at 10 µM [2]: 17.8%
- EC50 (IL-6): > 10 µM
- inhibition at 10 µM (IL-6): 1.8%
- EC50 [3]: > 10 µM
- inhibition at 10 µM [3]: 43.6%

Structure (SMILES): Cc1ncc(-c2ccc3cnc(NC(=O)N4CCC(N5CCOCC5)CC4)nc3c2)o1 [Compound 1472, N-(7-(2-Methyloxazol-5-yl)quinazolin-2-yl)-4-morpholinopiperidine-1-carboxamide]
- EC50 (DYRK1A kinase): 0.246 µM
- EC50 (GSK3β kinase): 2.33 µM
- EC50 [1]: > 10 µM
- inhibition at 10 µM [1]: 16.7%
- EC50 [2]: > 10 µM
- inhibition at 10 µM [2]: 1.6%
- EC50 (IL-6): > 10 µM
- inhibition at 10 µM (IL-6): 7.6%
- EC50 [3]: > 10 µM
- inhibition at 10 µM [3]: 33.9%

Structure (SMILES): Cc1ncc(-c2ccc3cnc(NC(=O)Cn4ccnc4)nc3c2)o1 [Compound 1495, 2-(1H-Imidazol-1-yl)-N-(7-(2-methyloxazol-5-yl)quinazolin-2-yl)acetamide]
- EC50 (DYRK1A kinase): 0.113 µM
- EC50 (GSK3β kinase): 0.254 µM
- EC50 [1]: > 10 µM
- inhibition at 10 µM [1]: 25.5%
- EC50 [2]: 1.51 µM
- EC50 (IL-6): > 10 µM
- inhibition at 10 µM (IL-6): 3.2%
- EC50 [3]: > 10 µM
- inhibition at 10 µM [3]: 48.5%

Structure (SMILES): Cc1nnc(-c2ccc3cnc(NC(=O)CN4C5CCC4COC5)nc3c2)s1 [Compound 1634, 2-(3-Oxa-8-azabicyclo[3.2.1]octan-8-yl)-N-(7-(5-methyl-1,3,4-thiadiazol-2-yl)quinazolin-2-yl)acetamide]
- EC50 (DYRK1A kinase): 0.342 µM
- EC50 (GSK3β kinase): 0.224 µM
- EC50 [1]: > 10 µM
- inhibition at 10 µM [1]: 13.7%
- EC50 [2]: > 10 µM
- inhibition at 10 µM [2]: 16.4%
- EC50 (IL-6): > 10 µM
- inhibition at 10 µM (IL-6): 5.4%
- EC50 [3]: > 10 µM
- inhibition at 10 µM [3]: 18.3%

Structure (SMILES): Cc1nnc(-c2ccc3cnc(NC(=O)c4ccnc(N5CCN(C)CC5)c4)nc3c2)s1 [Compound 1656, N-(7-(5-Methyl-1,3,4-thiadiazol-2-yl)quinazolin-2-yl)-2-(4-methylpiperazin-1-yl)isonicotinamide]
- EC50 (DYRK1A kinase): 0.065 µM
- EC50 (GSK3β kinase): 0.34 µM
- EC50 [1]: 2.21 µM
- EC50 [2]: 1.2 µM
- EC50 (IL-6): > 10 µM
- inhibition at 10 µM (IL-6): 6%
- EC50 [3]: 1.76 µM

Structure (SMILES): Cn1cc(-c2cnc3cnc(NC(=O)[C@H]4CCCN4)cc3c2)cn1 [Compound 2782, (R)—N-(3-(1-Methyl-1H-pyrazol-4-yl)-1,7-naphthyridin-6-yl)pyrrolidine-2-carboxamide]
- EC50 (DYRK1A kinase): 0.867 µM
- EC50 (GSK3β kinase): 2.45 µM
- EC50 [1]: > 10 µM
- inhibition at 10 µM [1]: 18.8%
- EC50 [2]: > 10 µM
- inhibition at 10 µM [2]: 2.2%
- EC50 (IL-6): > 10 µM
- inhibition at 10 µM (IL-6): 4.3%
- EC50 [3]: 2.4 µM

Structure (SMILES): CC(C(=O)Nc1cc2cc(-c3cnn(C)c3)cnc2cn1)N1CCCCC1 (stereo not shown) [Compound 2791, N-(3-(1-Methyl-1H-pyrazol-4-yl)-1,7-naphthyridin-6-yl)-2-(piperidin-1-yl) propanamide]
- EC50 (DYRK1A kinase): 0.513 µM
- EC50 (GSK3β kinase): 3.47 µM
- EC50 [1]: > 10 µM
- inhibition at 10 µM [1]: 24.8%
- EC50 [2]: > 10 µM
- inhibition at 10 µM [2]: 10.5%
- EC50 (IL-6): > 10 µM
- inhibition at 10 µM (IL-6): 5.3%
- EC50 [3]: 6.13 µM

Structure (SMILES): CN(C)CCNc1cc(C(=O)Nc2cc3cc(-c4cnn(C)c4)cnc3cn2)ccn1 [Compound 2884, 2-((2-(Dimethylamino)ethyl)amino)-N-(3-(1-methyl-1H-pyrazol-4-yl)-1,7-naphthyridin-6-yl)isonicotinamide]
- EC50 (DYRK1A kinase): 0.049 µM
- EC50 (GSK3β kinase): > 10 µM
- EC50 [1]: 3.88 µM
- EC50 [2]: > 10 µM
- inhibition at 10 µM [2]: 44.1%
- EC50 (IL-6): > 10 µM
- inhibition at 10 µM (IL-6): 9.4%
- EC50 [3]: 5.24 µM

From US10703748B2, “Diazanaphthalen-3-yl carboxamides and preparation and use thereof” (Samumed, LLC, priority 2017, dated 2020)
